A word on the Kd: it is the concentration at which binding is half-saturated. One may read the IC50 as the concentration at which inhibition is half-maximal. Higher therefore signals weaker potency.

Drawing on US9242981B2, “Fused pyrazole derivatives as novel ERK inhibitors” (Merck Sharp & Dohme Corp., priority 2010, dated 2016), this text covers Kd and IC50 for two molecules.

The target in one test is ERK protein (Mus musculus, UniProt P63085). Put plainly: TdF (Temperature Dependence Fluorescence, thermal shift) assay for ERK. It counts as binding. As to conditions: Table 2; 3 μM ERK protein. The text has this: The SAR (Structure Activity Relationship) for ERK ligands covered by this invention was interrogated using the TdF (Temperature Dependence Fluorescence) assay or best known as thermal shift assay. (M. W. Pantoliano, et al., “High-density miniaturized thermal shift assays as a general strategy for drug discovery,” J. Biomol. Screen 6 (2001) 429-440) The TdF assay was mainly conducted in the 96-well based CHROMO-4 real time fluorescence plate reader (BioRad). The Sypro Orange (Sigma-Aldrich), environmentally sensitive fluorescence dye, was used to monitor the protein folding-unfolding transition. Protein-ligand binding was gauged by the change (or shift) in the unfolding transition temperature (ΔTm) acquired at protein alone with respect to protein in the presence of ligand of interest.
Compound of interest was first prepared in DMSO stock (typical concentration: 10 mM). […] Final percentage of DMSO resided in the sample was 2%. The sample plate was heated from 30° C. to 90° C. with thermal ramping rate of 1° C./min. The fluorescence signals were acquired with excitation and emission wavelengths centered at 490 and 560 nm respectively. The instrument thermal stability was ±0.2° C. The melting temperatures (Tm) for ERK protein under aforementioned conditions occurred at […] and 64.8±0.2° C. respectively.
The derivation of TdF-based ligand binding affinity constant (Kd) followed closely those previously formulated by Brandts and Lin. (J. F. Brandts, L.-N. Lin, “Study of strong to ultratight protein interactions using differential scanning calorimetry,” Biochemistry 29 (1990) 6927-6940). In brief, the binding constant of the ligand at the Tm is expressed as below:
[formula] where T0 is the midpoint of unfolding for unliganded protein and Tm is the midpoint of unfolding in presence of ligand. [LTm] is free ligand at Tm. The ΔHu and ΔCpu are the enthalpy of unfolding and heat capacity change of unfolding for the protein respectively. Following algorithm derived by Winsor and coworker, the T0, ΔHu and ΔCpu can be determined separately from nonlinear regression fitting the protein alone melting curve:
[formula] where F(T) is the observed fluorescence intensity at any temperature T, Yn, and Yu are the predicted fluorescence intensities for fully folded and unfolded protein, respectively; mn and mu are slope correction for changes in Yn and Yu with respect to changes in temperature (analogously replace T0 with Tm in the above equation for liganded protein to yield Tm). (Mayhood, T. W., Windsor, W. T., “Ligand binding affinity determined by temperature-dependent circular dichroism: Cyclin-dependent kinase 2 inhibitors,” Analytical Biochemistry 345 (2005) 187-197).
[formula] where ΔHL (T) is the van't Hoff enthalpy of ligand binding at temperature T and ΔCpL is the heat capacity upon ligand binding. For simplicity, the ΔCpL and ΔHL (T) were set to zero and -7 kcal/mol respectively. […]

The target in another test is Mouse ERK2 protein (Mus musculus (Mouse), UniProt P63085). Put plainly: Coupled MEK1/ERK2 IMAP assay or Active ERK2 IMAP assay. It counts as biochemical. To be noted: Table 2, 30 μM ATP.
Chain of Mouse ERK2 protein (P63085 whole entry): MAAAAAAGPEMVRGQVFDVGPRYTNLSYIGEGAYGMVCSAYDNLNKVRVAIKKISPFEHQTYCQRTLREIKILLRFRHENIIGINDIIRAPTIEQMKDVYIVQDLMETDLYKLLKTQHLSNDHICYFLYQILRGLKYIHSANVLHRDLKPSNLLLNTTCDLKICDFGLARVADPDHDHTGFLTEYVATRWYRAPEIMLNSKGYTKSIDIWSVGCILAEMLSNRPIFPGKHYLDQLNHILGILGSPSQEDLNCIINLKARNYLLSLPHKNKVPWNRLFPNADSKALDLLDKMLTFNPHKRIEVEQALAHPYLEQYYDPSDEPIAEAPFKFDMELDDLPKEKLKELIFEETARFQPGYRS

Chain of ERK protein (P63085 2-358 limits assumed): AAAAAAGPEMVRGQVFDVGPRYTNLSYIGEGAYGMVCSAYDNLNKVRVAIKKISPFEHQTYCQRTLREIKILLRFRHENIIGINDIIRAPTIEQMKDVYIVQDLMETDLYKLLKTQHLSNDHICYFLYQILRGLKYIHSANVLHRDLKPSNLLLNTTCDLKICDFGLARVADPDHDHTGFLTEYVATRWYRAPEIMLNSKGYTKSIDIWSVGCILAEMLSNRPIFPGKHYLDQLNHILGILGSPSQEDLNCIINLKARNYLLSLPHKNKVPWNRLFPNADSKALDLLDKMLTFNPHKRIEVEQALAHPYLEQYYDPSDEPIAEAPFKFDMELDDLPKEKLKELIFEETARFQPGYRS

Turning to `COc1cccc(F)c1CN1CCC[C@@H](NC(=O)N2CCc3[nH]nc(-c4ccc5nccn5c4)c3C2)C1` [Compound 113, N-[1-[(2-fluoro-6-methoxyphenyl)methyl]-3(R)-piperidinyl]-1,4,6,7-tetrahydro-3-(imidazo[1,2-a]pyridin-6-yl)-5H-pyrazolo[4,3-c]pyridine-5-carboxamide], the equilibrium dissociation constant (Kd) at ERK protein worked out at 0.03 nM. In addition, the midpoint of inhibition at Mouse ERK2 protein, the IC50, lay at 4.2 nM.
`COc1cccc(F)c1CN1CC(NC(=O)N2CCc3[nH]nc(-c4ccnc(C)c4)c3C2)CC(C(F)(F)F)C1` (stereo not shown) [Compound 123, N-[1-[(2-fluoro-6-methoxyphenyl)methyl]-5-(trifluoromethyl)-3-piperidinyl]-1,4,6,7-tetrahydro-3-(2-methyl-4-pyridinyl)-5H-pyrazolo[4,3-c]pyridine-5-carboxamide]: the Kd on ERK protein is 0.06 nM. The molecule further had a half-maximal inhibitory concentration (IC50) against Mouse ERK2 protein of 4.3 nM.
